{
  "source": "patent US12133714B2",
  "about": "“Line excitation array detection microscopy” (BOARD OF REGENTS, THE UNIVERSITY OF TEXAS SYSTEM, priority 2018, dated 2024)",
  "key": {"[1]": {"test_system": "polyQ40 strain C. elegans (polyglutamine mediated aggregation of YFP-labeled protein in body wall muscle cells)", "conditions": "polyQ40 animals, earlier publication (ref. 37); cited from earlier work"}, "[2]": {"test_system": "polyQ40 strain C. elegans (polyglutamine mediated aggregation of YFP-labeled protein in body wall muscle cells)", "assay": "LEAD flow cytometry imaging of polyQ aggregation model C. elegans treated with drug", "format": "in vivo", "conditions": "for number of fluorescent protein aggregates per animal (median ± standard deviation): polyQ40 animals treated at L1 stage, imaged at late L4 stage, untreated polyQ40 27±3", "from_the_text": "The model simulates human Huntington's disease through CAG repeats in the huntingtin allele, with 35 or more repeats resulting in polyglutamine (polyQ) mediated aggregation, protein misfolding, and cellular toxicity^36. Specifically, the polyQ40 strain was imaged with 40 CAG repeats at the late L4 stage when the disease phenotype presents as aggregation of YFP-labeled protein in the body wall muscle cells. The aggregates are 1-5 μm in diameter and distributed in 3D along the length of the animal, and therefore requires relatively high resolution volumetric imaging. […] Populations of up to 300 animals were imaged. The animals moved at 0.89±0.31 m/s through the imaging channel, resulting in an imaging time of 1.07±0.26 ms per animal with the majority of the population imaged within 1 second (See FIGS. 10B, 10C). The maximum available laser power of 4 mW at the sample was sufficient to utilize the full dynamic range of our collection system. […] Despite the ultrafast scanning, C. elegans images show SNRs exceeding 500 for the center PMT elements and slightly lower SNR for the less responsive surrounding elements in accordance with the PMT specifications (see FIG. 9D). 27±3 (median±standard deviation) aggregates per animal for the polyQ40 strain were found, similar to previous findings for worms at the same stage^36. […] PolyQ40 animals were treated with either 25 or 50 μM dronedarone at the L1 stage, and were imaged at the late L4 stage (FIG. 16A). The drug reduced aggregation to 16±5 and 7±2 aggregates per animal for 25 μM and 50 μM, respectively, showing a dose response (FIG. 16B). The system's high-speed 3D imaging capability for drug screening is established by the short imaging time for the effectivity of dronedarone reaches a statistically significant level—animals treated with 25 and 50 μM dronedarone reach p=0.001 in under 0.25 s and 0.10 s, respectively (FIG. 16C). […]"}},
  "note": "“Also recorded” adds a separate entry of the source.",
  "data": [
    {"smiles": "CCCCc1oc2ccc(NS(C)(=O)=O)cc2c1C(=O)c1ccc(OCCCN(CCCC)CCCC)cc1", "note": "[dronedarone]", "values": [
      {"measurement": "effect on formation of aggregates, previously observed (in words)", "setting": "[1]", "result": "prevents the formation of aggregates in the polyQ40 animals"},
      {"measurement": "number of fluorescent protein aggregates per animal (median ± standard deviation)", "setting": "[2]; 25 μM", "result": "16±5", "unit": "aggregates per animal"},
      {"measurement": "number of fluorescent protein aggregates per animal (median ± standard deviation)", "setting": "[2]; 50 μM", "result": "7±2", "unit": "aggregates per animal"},
      {"measurement": "effect on formation of protein aggregates (in words)", "setting": "[2]; polyQ40 animals, 25 and 50 μM, LEAD imaging", "result": "prevents the formation of protein aggregates with a dose response; also recorded: can reduce aggregation with a dose response"}
    ]}
  ]
}
